Assay results reported in patent US20060276464A1, “Diarylsulfone sulfonamides and use thereof” (Wyeth, priority 2005, published 2006).
Where two headings read alike, the source gives them in different places.

How the values were obtained:
SFRP-1 [1] = molecular target: T1, SFRP-1 (Homo sapiens, UniProt Q8N474); assay: Fluorescence polarization binding assay (competitive displacement of a probe compound from SFRP-1); conditions: fluorescence anisotropy, 45 nM SFRP-1, 20 nM probe;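 further: test compound competes with a fluorescent probe held by SFRP-1, seen as a drop in probe anisotropy after incubation in darkness, with anisotropy as function of rising compound dose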
T1 sequence (Q8N474 32-314): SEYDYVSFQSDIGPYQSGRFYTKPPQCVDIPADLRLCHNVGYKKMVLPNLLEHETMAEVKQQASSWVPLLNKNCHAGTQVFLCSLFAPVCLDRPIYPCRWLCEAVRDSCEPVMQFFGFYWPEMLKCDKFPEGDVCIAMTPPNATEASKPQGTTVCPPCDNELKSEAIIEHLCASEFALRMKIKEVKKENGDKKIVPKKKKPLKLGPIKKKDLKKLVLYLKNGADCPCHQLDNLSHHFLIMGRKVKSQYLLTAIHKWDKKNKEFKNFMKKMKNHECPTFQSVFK

SFRP-1 [2] = molecular target: T1, SFRP-1; assay: Cell-based assay for in vitro measurement of SFRP-1/SARP2 antagonist activity (U2OS cells co-transfected with 16x TCF-tk-Luciferase reporter, Wnt and hSFRP-1); conditions: for fold induction at 10 µM / fold induction at 15 µM: U2OS; for fold induction at 10 µM: read-out: Fold Induction with SFRP-1, U2OS cells, single dose 10 μM, luciferase reporter, fold induction over SFRP-1 control;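 on all read-outs here: U2OS cells co-transfected with a TCF-tk luciferase reporter, a Wnt vector, hSFRP-1 or empty vector and CMV-βgal, luciferase luminescence read in cell lysates alongside βgal activity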
[3] = read-out: Fold Induction with SFRP-1, Conc 15 μM, single dose, luciferase reporter, fold induction over SFRP-1 control, cells with SFRP-1
[4] = read-out: Fold Induction without SFRP-1, Conc 15 μM, single dose, luciferase reporter, cells without SFRP-1 (specificity control)
[5] = read-out: Fold Induction with SFRP-1, Conc 15 μM, with SFRP-1, fold induction over SFRP-1 control, single dose
[6] = read-out: Fold Induction without SFRP-1, Conc 15 μM, without SFRP-1, single dose

Structure (SMILES) | IC50 (SFRP-1 [1]) | EC50 (SFRP-1 [2]) | fold induction at 10 µM (SFRP-1 [2]) | further results
CC(C)c1ccc(S(=O)(=O)c2ccccc2)cc1S(=O)(=O)NCCc1cccnc1 [Example 672, 2-isopropyl-5-(phenylsulfonyl)-N-(2-pyridin-3-ylethyl)benzenesulfonamide] | 300 nM | 3120 nM | 4.2 | 
CC(C)(C)OC(=O)N1CC[C@@H](NS(=O)(=O)c2cc(S(=O)(=O)c3ccccc3)ccc2C(F)(F)F)C1 [Example 795, tert-butyl(3R)-3-({[5-(phenylsulfonyl)-2-(trifluoromethyl)phenyl]sulfonyl}amino)pyrrolidine-1-carboxylate] | 80 nM | 140 nM | 3.8 | 
O=C(c1ccc(F)cc1Cl)N1CCC(NS(=O)(=O)c2cc(S(=O)(=O)c3ccccc3)ccc2C(F)(F)F)CC1 [Example 716, N-[1-(2-chloro-4-fluorobenzoyl)piperidin-4-yl]-5-(phenylsulfonyl)-2-(trifluoromethyl)benzenesulfonamide] | 300 nM | 1760 nM | 4.2 | 
O=S(=O)(NCCc1ccc(-c2nn[nH]n2)cc1)c1cc(S(=O)(=O)c2ccccc2)ccc1C(F)(F)F [Example 984, 5-(phenylsulfonyl)-N-{2-[4-(2H-tetrazol-5-yl)phenyl]ethyl}-2-(trifluoromethyl)benzenesulfonamide] | 200 nM | 657 nM |  | 
O=C(O)CN1CCC(CNS(=O)(=O)c2cc(S(=O)(=O)c3ccccc3)ccc2C(F)(F)F)CC1 [Example 941, {4-[({[5-(phenylsulfonyl)-2-(trifluoromethyl)phenyl]sulfonyl}amino)methyl]piperidin-1-yl}acetic acid] | 700 nM | 1340 nM | 3.2 | 
COc1cccc(S(=O)(=O)c2ccc(C(C)C)c(S(=O)(=O)NC3CCOCC3)c2)c1 [Example 598, 2-isopropyl-5-[(3-methoxyphenyl)sulfonyl]-N-(tetrahydro-2H-pyran-4-yl)benzenesulfonamide] | 900 nM |  |  | fold induction at 15 µM (SFRP-1 [2]; [3]): 3.6; fold induction at 15 µM (SFRP-1 [2]; [4]): 1.4
CC(C)c1ccc(S(=O)(=O)c2ccc(N3C[C@@H](C)N[C@@H](C)C3)cc2)cc1S(=O)(=O)NC1CCOCC1 [Example 626, 5-({4-cis-3,5-dimethylpiperazin-1-ylphenyl}sulfonyl)-2-isopropyl-N-(tetrahydro-2H-pyran-4-yl)benzenesulfonamide] | 4000 nM |  |  | fold induction at 15 µM (SFRP-1 [2]; [3]): 2.9; fold induction at 15 µM (SFRP-1 [2]; [4]): 1.1
CC(C)(C)NC(=O)N1CCC(NS(=O)(=O)c2cc(S(=O)(=O)c3ccccc3)ccc2Cl)CC1 [Example 649, N-(tert-butyl)-4-({[2-chloro-5-(phenylsulfonyl)phenyl]sulfonyl}amino)piperidine-1-carboxamide] | 1600 nM |  |  | fold induction at 15 µM (SFRP-1 [2]; [3]): 3; fold induction at 15 µM (SFRP-1 [2]; [4]): 1.1
COCC(=O)N1CCC(NS(=O)(=O)c2cc(S(=O)(=O)c3ccc(F)cc3)ccc2C(C)C)CC1 [Example 519, 5-[(4-fluorophenyl)sulfonyl]-2-isopropyl-N-[1-(methoxyacetyl)piperidin-4-yl]benzenesulfonamide] | 800 nM |  |  | fold induction at 15 µM (SFRP-1 [2]; [3]): 3; fold induction at 15 µM (SFRP-1 [2]; [4]): 0.9
CN(CCNS(=O)(=O)c1cc(S(=O)(=O)c2ccccc2)ccc1C(F)(F)F)C(=O)c1ccncc1 [Example 850, N-Methyl-N-[2-({[5-(phenylsulfonyl)-2-(trifluoromethyl)phenyl]sulfonyl}amino)ethyl]isonicotinamide] | 600 nM | 1520 nM | 3.5 | 
CCc1nccn1CCNS(=O)(=O)c1cc(S(=O)(=O)c2ccc(F)cc2)ccc1C(C)C [Example 584, N-[2-(2-ethyl-1H-imidazol-1-yl)ethyl]-5-[(4-fluorophenyl)sulfonyl]-2-isopropylbenzenesulfonamide] | 500 nM |  |  | fold induction at 15 µM (SFRP-1 [2]; [3]): 3.4; fold induction at 15 µM (SFRP-1 [2]; [4]): 1.1
CC(C)(C)c1ccc(C(=O)N2CCC(NS(=O)(=O)c3cc(S(=O)(=O)c4cccc(Cl)c4)ccc3C(F)(F)F)CC2)cc1 [Example 753, N-[1-(4-tert-butylbenzoyl)piperidin-4-yl]-5-[(3-chlorophenyl)sulfonyl]-2-(trifluoromethyl)benzenesulfonamide] | 700 nM |  | 3.8 | 
COc1ccc(CCNS(=O)(=O)c2cc(S(=O)(=O)c3ccccc3)ccc2C(F)(F)F)cc1 [Example 939, N-[2-(4-methoxyphenyl)ethyl]-5-(phenylsulfonyl)-2-(trifluoromethyl)benzenesulfonamide] | 700 nM |  | 2.2 | 
CC(=O)Nc1ccc(C(=O)N2CCC(NS(=O)(=O)c3cc(S(=O)(=O)c4ccccc4)ccc3C(F)(F)F)CC2)cc1 [Example 719, N-(4-{[4-({[5-(phenylsulfonyl)-2-(trifluoromethyl)phenyl]sulfonyl}amino)piperidin-1-yl]carbonyl}phenyl)acetamide] | 200 nM | 441 nM | 2.1 | 
CC(C)c1ccc(S(=O)(=O)c2ccc(F)cc2)cc1S(=O)(=O)NC1CCOCC1 [Example 321, 5-[(4-fluorophenyl)sulfonyl]-2-isopropyl-N-tetrahydro-2H-pyran-4-ylbenzenesulfonamide] | 1000 nM |  |  | fold induction at 15 µM (SFRP-1 [2]; [5]): 3.3; fold induction at 15 µM (SFRP-1 [2]; [6]): 1.2
CC(C)(C)OC(=O)N1C[S+]([O-])C[C@H]1C(=O)N1CCC(NS(=O)(=O)c2cc(S(=O)(=O)c3ccccc3)ccc2C(F)(F)F)CC1 (stereo partly drawn) [Example 1061, tert-butyl (4R)-4-{[4-({[5-(phenylsulfonyl)-2-(trifluoromethyl)phenyl]sulfonyl}amino)piperidin-1-yl]carbonyl}-1,3-thiazolidine-3-carboxylate 1-oxide] | 20 nM | 78 nM |  | 
CN(CCNS(=O)(=O)c1cc(S(=O)(=O)c2ccccc2)ccc1C(F)(F)F)C(=O)NC(C)(C)C [Example 829, N-{2-[[(tert-butylamino)carbonyl](methyl)amino]ethyl}-5-(phenylsulfonyl)-2-(trifluoromethyl)benzenesulfonamide] | 400 nM | 1320 nM | 2.7 | 
CCc1ccc(S(=O)(=O)c2ccccc2)cc1S(=O)(=O)NCCN1CCOCC1 [Example 226, 2-ethyl-N-(2-morpholin-4-ylethyl)-5-(phenylsulfonyl)benzenesulfonamide] | 2600 nM |  |  | fold induction at 15 µM (SFRP-1 [2]; [5]): 3; fold induction at 15 µM (SFRP-1 [2]; [6]): 0.7
CC(C)(C)c1ccc(S(=O)(=O)c2ccccc2)cc1S(=O)(=O)NCCc1ccccn1 [Example 461, 2-tert-butyl-5-(phenylsulfonyl)-N-(2-pyridin-2-ylethyl)benzenesulfonamide] | 700 nM |  |  | fold induction at 15 µM (SFRP-1 [2]; [5]): 1.7; fold induction at 15 µM (SFRP-1 [2]; [6]): 1
CN(CCNS(=O)(=O)c1cc(S(=O)(=O)c2ccccc2)ccc1C(F)(F)F)CC(=O)O [Example 981, N-methyl-N-[2-({[5-(phenylsulfonyl)-2-(trifluoromethyl)phenyl]sulfonyl}amino)ethyl]glycine] | 13000 nM |  |  | 
O=C(O)c1cccc(-c2ccc(CNS(=O)(=O)c3cc(S(=O)(=O)c4ccccc4)ccc3C(F)(F)F)cc2)c1 [Example 976, 4′-[({[5-(phenylsulfonyl)-2-(trifluoromethyl)phenyl]sulfonyl}amino)methyl]biphenyl-3-carboxylic acid] | 6000 nM |  |  | 
CN(CCNS(=O)(=O)c1cc(S(=O)(=O)c2ccccc2)ccc1C(F)(F)F)CCC(=O)O [Example 982, N-methyl-N-[2-({[5-(phenylsulfonyl)-2-(trifluoromethyl)phenyl]sulfonyl}amino)ethyl]-β-alanine] | 8000 nM |  |  | 
CN(CCCNS(=O)(=O)c1cc(S(=O)(=O)c2ccccc2)ccc1C(F)(F)F)C(=O)N1CCN(C(=O)OC(C)(C)C)CC1 [Example 974, tert-butyl 4-({methyl[3-({[5-(phenylsulfonyl)-2-(trifluoromethyl)phenyl]sulfonyl}amino)propyl]amino}carbonyl)piperazine-1-carboxylate] | 4000 nM |  |  | 
N#Cc1cccc(N2CCC(NS(=O)(=O)c3cc(S(=O)(=O)c4ccccc4)ccc3C(F)(F)F)CC2)c1 [Example 986, N-[1-(3-cyanophenyl)piperidin-4-yl]-5-(phenylsulfonyl)-2-(trifluoromethyl)benzenesulfonamide] | 800 nM |  |  | 
CC(C)C(CO)NS(=O)(=O)c1cc(S(=O)(=O)c2ccccc2)ccc1C(F)(F)F (stereo not shown) [Example 769, N-[1-(hydroxymethyl)-2-methylpropyl]-5-(phenylsulfonyl)-2-(trifluoromethyl)benzenesulfonamide] | 13000 nM |  |  | 
O=S(=O)(NCc1cccc(Br)c1)c1cc(S(=O)(=O)c2ccccc2)ccc1C(F)(F)F [Example 994, N-(3-bromobenzyl)-5-(phenylsulfonyl)-2-(trifluoromethyl)benzenesulfonamide] | 2300 nM |  |  | 
CN(C(=O)NCCNS(=O)(=O)c1cc(S(=O)(=O)c2ccccc2)ccc1C(F)(F)F)C1CCN(C(=O)OC(C)(C)C)CC1 [Example 1045, tert-butyl 4-[methyl({[2-({[5-(phenylsulfonyl)-2-(trifluoromethyl)phenyl]sulfonyl}amino)ethyl]amino}carbonyl)amino]piperidine-1-carboxylate] | 4000 nM |  |  | 
